Experiment [1] deals with T1, Type-1 angiotensin II receptor (Bos taurus, UniProt P25104).
T1 sequence (P25104 whole entry): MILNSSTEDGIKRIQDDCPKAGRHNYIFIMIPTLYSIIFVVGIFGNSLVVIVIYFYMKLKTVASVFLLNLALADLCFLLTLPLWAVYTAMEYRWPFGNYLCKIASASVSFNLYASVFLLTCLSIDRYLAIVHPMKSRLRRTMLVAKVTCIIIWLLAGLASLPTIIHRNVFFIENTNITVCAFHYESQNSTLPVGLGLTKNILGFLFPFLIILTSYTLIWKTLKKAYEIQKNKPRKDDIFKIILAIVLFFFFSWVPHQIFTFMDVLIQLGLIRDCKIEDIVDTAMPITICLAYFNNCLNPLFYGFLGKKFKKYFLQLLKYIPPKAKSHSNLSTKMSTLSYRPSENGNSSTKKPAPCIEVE
Description: Binding affinity for angiotensin II receptor of bovine adrenal cortex. The experiment is classed as tissue-based.

The next experiment deals with Rattus norvegicus. Description: Tested for drop in blood pressure over 5 hr when administered orally at 10 mg/kg in high renin rat hypertension model. The settings on record: route oral. Format: functional.

pIC50: −log10 of the molar value.

Regarding `CCCOc1nc2ccc(C)cn2c(=O)c1Cc1ccc(-c2ccccc2-c2nn[nH]n2)cc1`, the pIC50 (usually the negative decadic logarithm of the IC50, by convention in mol/L) in experiment [1] was 5.80.

In the case of `COc1nc2ccccn2c(=O)c1Cc1ccc(-c2ccccc2-c2nn[nH]n2)cc1`, in experiment [1], the pIC50 was 4.85.

Turning to `CCCCc1nc(Cl)c(CO)n1Cc1ccc(-c2ccccc2-c2nn[nH]n2)cc1` [LOSARTAN], the pIC50 in experiment [1] is 6.52.

For `CCOC(=O)c1ccc2nc(OC(C)C)c(Cc3ccc(-c4ccccc4-c4nn[nH]n4)cc3)c(=O)n2c1`, the pIC50 in experiment [1] is 5.31.

Take `CCCOc1nc2ccccn2c(=O)c1Cc1ccc(-c2ccccc2-c2nn[nH]n2)cc1`: the pIC50 in experiment [1] was 6.60. This molecule showed a Blood pressure in the experiment on Rattus norvegicus of 50 mmHg.

In experiment [1], `CCCOc1nc2c(C)cccn2c(=O)c1Cc1ccc(-c2ccccc2-c2nn[nH]n2)cc1` had a pIC50 of 5.22.

Take `CC(C)COc1nc2ccc(C(C)O)cn2c(=O)c1Cc1ccc(-c2ccccc2-c2nn[nH]n2)cc1` (centres undefined): in experiment [1], the pIC50 was 6.00.

As to `CC(C)Oc1nc2ccc(C(=O)O)cn2c(=O)c1Cc1ccc(-c2ccccc2-c2nnn[nH]2)cc1`, the pIC50 in experiment [1] is 4.16.

Molecule `CCCCOc1nc2ccccn2c(=O)c1Cc1ccc(-c2ccccc2-c2nnn[nH]2)cc1` had a pIC50 in experiment [1] of 5.62.

Take `CCCOc1nc2cc(C)ccn2c(=O)c1Cc1ccc(-c2ccccc2-c2nn[nH]n2)cc1`: in experiment [1], the pIC50 was 5.40.

In experiment [1], `Cc1ccc2nc(OC(C)C)c(Cc3ccc(-c4ccccc4-c4nnn[nH]4)cc3)c(=O)n2c1` showed a pIC50 of 5.22.

In turn, `CCOc1nc2ccccn2c(=O)c1Cc1ccc(-c2ccccc2-c2nnn[nH]2)cc1` had a pIC50 in experiment [1] of 5.36.

`Cc1ccc2nc(OCC(C)C)c(Cc3ccc(-c4ccccc4-c4nnn[nH]4)cc3)c(=O)n2c1` gave a pIC50 in experiment [1] of 5.40.

For the origin of these results see ChEMBL document CHEMBL1127870, “Substituted 4H-pyrido[1,2-a]pyrimidin-4-one angiotensin II receptor antagonists” (Bioorg Med Chem Lett, 1994).
